Two molecules from PMC6627486, “Ipomoeassin F Binds Sec61α to Inhibit Protein Translocation” (Journal of the American Chemical Society, 2019) can be followed below.

Experiment [1] deals with TNF production by RAW264.7 cells. The experiment in a line: TNF production washout assay in LPS-stimulated RAW264.7 cells. In kind it is cell-based. Conditions: 250 nM ipomoeassin F, 125 ng/mL mycolactone; for TNF production after 24 h washout: 1 h incubation, washed, 24 h recovery, then LPS 4 h; for TNF production, direct assay: 1 h preincubation, then 100 ng/mL LPS 4 h. The protocol: The reversibility of the inhibition of secreted protein production by ipomoeassin F was determined by following the production of TNF in RAW264.7 cells as described before.22 Briefly, RAW264.7 cells were maintained at 37 °C and 5% CO2 in high glucose DMEM (Merck), supplemented with 10% heat-inactivated FBS (GIBCO). Cells were plated into 24 well plates at a concentration of 1 x 10^5/ml 24 hour prior to assay, then incubated for 1 hour in the presence or absence of 125 ng/ml mycolactone, 250 nM Ipomoeassin F or DMSO carrier. Cells were either stimulated directly with 100 ng/ml TLR-grade LPS (Enzo) or washed 3 times with medium and incubated 24 hour, then stimulated with LPS. In each case, cells were incubated with LPS for 4 hour then the supernatants were removed. The concentration of TNF in supernatants was quantified by ELISA (eBioscience).

Another experiment relates to HepG2 cells. Put plainly: Pulse-chase analysis of protein secretion in HepG2 cells. In kind it is cell-based, human. Conditions: for secretory proteins in cell media: HepG2, 100 nM Ipom-F or 42 nM mycolactone 13.5 h, 100 nM bortezomib 2 h. As for the experimental part: Pulse‐Chase Analysis of Protein Secretion in HepG2 Cells
The secretion assay was performed using a pulse–chase approach as described previously.20 HepG2 cells were treated with DMSO, 100 nM compound 8, 100 nM Ipom-F or […] mycolactone for 13.5 h before initiating the experiment, whereas pre-treatment with bortezomib 100 nM (Stratech) or 2.5 μg/ml brefeldin A were performed for 2 h and 1 h, respectively. Cells were starved in Met‐ and Cys‐free DMEM (Invitrogen) for 20 min at 37°C. Labeling was initiated by addition of fresh starvation medium containing […] [35S]Met and [35S]Cys protein labeling mix (Perkin Elmer; specific activity >1,000 Ci/mmol) for 15 min. After washing with PBS, cells were incubated in serum‐free DMEM supplemented with excess unlabeled L‐Met and L‐Cys (2 mM final concentration) for 2 h. The compounds were included throughout the starvation, pulse and chase. Secreted proteins in the media were recovered by precipitation with 13% trichloroacetic acid, washed in acetone and dissolved in 2x sample buffer. Cells were solubilized with Triton X‐100 lysis buffer (20 mM Tris, pH 7.5, 150 mM NaCl, 1% TX-100, 1 mM EDTA, 1 mM EGTA) supplemented with protease inhibitor cocktail and phenylmethylsulfonyl fluoride. Equal amounts

Experiment [2] has as its system CD62L expression in Jurkat T cells. Put plainly: CD62L expression by Jurkat T cells. In kind it is cell-based, human. As to conditions: 24 h treatment. The protocol: Jurkat E6.1 (ATCC TIB-152TM) T cells were cultured in RPMI GlutamaxTM (Life Technologies), supplemented with 10% heat-inactivated fetal calf serum (FCS) (Invitrogen) and penicillin/streptomycin (100 U/ml, 100 µg/ml). Cells were treated with Ipomoeassin F or mycolactone for 24 h, then pelleted and stained with FITC-conjugated anti-human CD62L (clone DREG-56 (BioLegend #304804) at 500 ng/ml) during 40 min at 4°C. Fluorescence signals were acquired on an Accuri CD (BD) and analyzed with the […]
FlowJo X software. […]

The next experiment relates to HEK R66I. The experiment in a line: Alamar Blue viability, HEK293 expressing Sec61α R66I. As to conditions: read-out: cell viability IC50. The experiment is classed as cell-based, human. As for the experimental part:
(§1) AlamarBlue Cytotoxicity Assay […]
Compounds were diluted from a DMSO stock into culture medium as described above. Cells were treated for 96 h, then viability measured with AlamarBlue, detected using the conditions described but with a BMG Fluostar Optima Microplate Reader. The percentage of viability compared to the negative control (DMSO-treated cells) was determined. GraphPad Prism 6 software was used to make a plot of % viability versus sample […]
HCT116 and HEK293T. Viable cells were counted using an automated cell counter (BioRad TC20) before each experiment. Experiments were performed either in quadruplicate or duplicate sets. First 100µ l of HCT116 or HEK293T cells at a density of 25,000 cells/m l was seeded in black wall, clear bottom, 96-well plates (2500 cells/well) (Viewplate-96 Perkin Elmer). HEK293 FRT Trex cells were seeded in complete medium supplemented to 1 μg/ml Doxycycline to induce expression of Sec61a constructs. Cells were then incubated at 37 °C and 5% CO2 for 24 h. The compounds were dissolved in DMSO to make drug stocks (10 mM). […] Emission of each well at 620 nm was detected by a microplate reader (Perkin Elmer EnSpire) at excitation 580 nm. The percentage of viability compared to the negative control (DMSO -treated cells) was determined. […]

The subject of a further experiment is WT HEK. The experiment in a line: Alamar Blue viability, WT HEK293. As to conditions: read-out: cell viability IC50. The experiment is classed as cell-based, human. As for the experimental part: as §1
HCT116 and HEK293T. Viable cells were counted using an automated cell counter (BioRad TC20) before each experiment. Experiments were performed either in quadruplicate or duplicate sets. First 100µ l of HCT116 or HEK293T cells at a density of 25,000 cells/m l was seeded in black wall, clear bottom, 96-well plates (2500 cells/well) (Viewplate-96 Perkin Elmer). HEK293 FRT Trex cells were seeded in complete medium supplemented to 1 μg/ml Doxycycline to induce expression of Sec61a constructs. Cells were then incubated at 37 °C and 5% CO2 for 24 h. The compounds were dissolved in DMSO to make drug stocks (10 mM). The stock solutions were diluted with the complete DMEM or McCoy’s 5A culture media supplemented with DMSO to make a series of gradient fresh working solutions at equal DMSO percentage immediately prior to each test. Subsequently, the cells were treated with 25 μl of the freshly made gradient in a total volume of 125 μl/well for 72 h. After that, the media were supplemented with 10% of AlamarBlue (resazurin) stock solution. The plate was then incubated at 37 °C and 5% CO2 for another 4 h. Emission of each well at 620 nm was detected by a microplate reader (Perkin Elmer EnSpire) at excitation 580 nm. The percentage of viability compared to the negative control (DMSO -treated cells) was determined. […]

Another experiment has as its system HCT R66K. Put plainly: Alamar Blue viability, HCT116 Sec61α R66K (96 h). In kind it is cell-based, human. As for the experimental part:
AlamarBlue Cytotoxicity Assay
MDA-MB-231, MCF-10A and HCT116. Viable cells were counted with a hemocytometer immediately before each experiment . Experiments were done in triplicate. First, 100 μL of MDA-MB-231 cells or MCF-10A cells at the density of 50,000 cells/mL was seeded in a 96-well plate (5,000 cells/well) and then incubated at 37 °C and 5% CO2 for 24 h. The compounds were dissolved in DMSO (dimethyl sulfoxide) to make drug stocks (10 mM). The stock solutions were diluted with the complete DMEM high glucose culture medium to make a series of gradient fresh working solutions right before each test. Subsequently, the cells were treated with 100 μL of the freshly made gradient working solution in a total volume of 200 μL/well for 72 h. After that, the media were discarded and 200 μL of the fresh complete medium containing 10% of AlamarBlue (resazurin) stock solution was added to each well. The plate was then incubated at 37 °C and 5% CO2 for another 3 h. Emission of each well at 620 nm was detected by a microplate reader (BioTek Synergy H1) at excitation 580 nm. For HCT116 WT and mutant lines, cells were seeded at 1000 cells/ well in complete McCoys medium. […] Cells were treated for 96 h, then viability measured with AlamarBlue, detected using the conditions described but with a BMG Fluostar Optima Microplate Reader. […]
was determined. […]

Structures are written as SMILES. Read-outs that look alike come from different tables or passages of the source.

On to `CC(=C\C=C\C(C)=C\[C@H](O)[C@@H](O)C[C@H](C)O)/C=C(C)/C=C/C(=O)O[C@H]1CCCC(=O)O[C@@H]([C@@H](C)C/C(C)=C/[C@@H](C)[C@H](O)C[C@@H](C)O)C/C=C(\C)C[C@@H]1C` [mycolactone, reference compound], for which the “TNF production after 24 h washout” value in experiment [1] is listed as “not to be restored”. In addition, the “TNF production, direct assay” value in experiment [1] is listed as “completely block TNF production”. In addition, the “secretory proteins in cell media” value with HepG2 cells is on record as “substantial reduction”. The IC50 was 6.3 nM in experiment [2], 4620 nM in the experiment with HEK R66I (72 h), 23.6 ± 0.6 nM in the experiment with WT HEK (72 h) and over 330 nM in the experiment with HCT R66K (read-out: cell viability IC50).
Turning to `C/C=C(\C)C(=O)O[C@@H]1[C@@H](O)[C@@H]2O[C@H]3[C@H](O[C@@H](CCCCC)CCCCCCC(=O)CCC(=O)OC[C@@H](O2)[C@H]1OC(=O)/C=C/c1ccccc1)O[C@H](C)[C@H](OC(C)=O)[C@@H]3O` [ipomoeassin F], the “TNF production after 24 h washout” value in experiment [1] is “restored, albeit at a reduced level”. Moreover, in experiment [1], the “TNF production, direct assay” value is “similarly blocked TNF production”. Moreover, the “global protein synthesis (total radiolabeled proteins)” value with HepG2 cells (HepG2, 100 nM, 13.5 h) was “did not inhibit global protein synthesis”. In addition, in the experiment with HepG2 cells, the “secretory proteins in cell media” value is recorded as “substantial reduction”. Also, the IC50 was 6.3 nM in experiment [2] (Homo sapiens); over 10000 nM in the experiment with HEK R66I (Homo sapiens, HEK293, 72 h); 9.6 ± 1 nM in the experiment with WT HEK (Homo sapiens, HEK293, 72 h); 131 ± 15 nM in the experiment on HCT R66K (Homo sapiens, HCT-116, read-out: cell viability IC50).
